For five compounds, kinase still bound, per cent of control results are on record in the kinase profiling compilation of Christmann-Franck et al. (2016).

Molecules are shown by their SMILES.

Holding throughout (assay): KINOMEscan competition binding
Holding throughout (conditions): compound 10.0 µM

Assay [1] deals with MAPK15 (human) (UniProt Q8TD08).
Assay [2] addresses CLK3 (human) (UniProt P49761).
For assay [3], the target named is ULK2 (human) (UniProt Q8IYT8).
Assay [4] deals with STK17B (human) (UniProt O94768).
Assay [5] addresses CDK7 (human) (UniProt P50613).
For assay [6], the system named is EGFR (human), P00533 [G719S].
Assay [7] addresses JAK3 JH1 catalytic (human) (UniProt P52333).
The target in assay [8] is PIM1 (human) (UniProt P11309).
Assay [9] has as its target HIPK1 (human) (UniProt Q86Z02).
Assay [10] deals with CLK2 (human) (UniProt P49760).
CLK2 (human), sequence (P49760 whole entry, looked up): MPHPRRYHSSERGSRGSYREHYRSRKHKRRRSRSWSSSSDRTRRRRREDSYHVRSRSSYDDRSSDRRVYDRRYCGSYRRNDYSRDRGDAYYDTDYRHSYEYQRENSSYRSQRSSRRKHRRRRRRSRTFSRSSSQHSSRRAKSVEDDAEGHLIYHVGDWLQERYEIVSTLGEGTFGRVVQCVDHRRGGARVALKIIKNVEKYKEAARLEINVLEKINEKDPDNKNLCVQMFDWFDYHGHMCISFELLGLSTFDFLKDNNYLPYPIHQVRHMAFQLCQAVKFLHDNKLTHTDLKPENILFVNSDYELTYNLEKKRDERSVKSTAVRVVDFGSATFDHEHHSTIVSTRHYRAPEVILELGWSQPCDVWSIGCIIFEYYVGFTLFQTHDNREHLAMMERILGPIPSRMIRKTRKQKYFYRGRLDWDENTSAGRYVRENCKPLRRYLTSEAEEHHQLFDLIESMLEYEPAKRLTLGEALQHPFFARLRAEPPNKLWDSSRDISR
Assay [11] addresses MYLK (human) (UniProt Q15746).
Assay [12] addresses CAMKK2 (human) (UniProt Q96RR4).
Assay [13] addresses RPS6KA4 KD2 (human) (UniProt O75676).
The target of assay [14] is CSNK2A1 (human) (UniProt P68400).
The target of assay [15] is DAPK1 (human) (UniProt P53355).
The target in assay [16] is CAMKK1 (human) (UniProt Q8N5S9).
The target of assay [17] is GAK (human) (UniProt O14976).
GAK (human), sequence (O14976 whole entry, looked up): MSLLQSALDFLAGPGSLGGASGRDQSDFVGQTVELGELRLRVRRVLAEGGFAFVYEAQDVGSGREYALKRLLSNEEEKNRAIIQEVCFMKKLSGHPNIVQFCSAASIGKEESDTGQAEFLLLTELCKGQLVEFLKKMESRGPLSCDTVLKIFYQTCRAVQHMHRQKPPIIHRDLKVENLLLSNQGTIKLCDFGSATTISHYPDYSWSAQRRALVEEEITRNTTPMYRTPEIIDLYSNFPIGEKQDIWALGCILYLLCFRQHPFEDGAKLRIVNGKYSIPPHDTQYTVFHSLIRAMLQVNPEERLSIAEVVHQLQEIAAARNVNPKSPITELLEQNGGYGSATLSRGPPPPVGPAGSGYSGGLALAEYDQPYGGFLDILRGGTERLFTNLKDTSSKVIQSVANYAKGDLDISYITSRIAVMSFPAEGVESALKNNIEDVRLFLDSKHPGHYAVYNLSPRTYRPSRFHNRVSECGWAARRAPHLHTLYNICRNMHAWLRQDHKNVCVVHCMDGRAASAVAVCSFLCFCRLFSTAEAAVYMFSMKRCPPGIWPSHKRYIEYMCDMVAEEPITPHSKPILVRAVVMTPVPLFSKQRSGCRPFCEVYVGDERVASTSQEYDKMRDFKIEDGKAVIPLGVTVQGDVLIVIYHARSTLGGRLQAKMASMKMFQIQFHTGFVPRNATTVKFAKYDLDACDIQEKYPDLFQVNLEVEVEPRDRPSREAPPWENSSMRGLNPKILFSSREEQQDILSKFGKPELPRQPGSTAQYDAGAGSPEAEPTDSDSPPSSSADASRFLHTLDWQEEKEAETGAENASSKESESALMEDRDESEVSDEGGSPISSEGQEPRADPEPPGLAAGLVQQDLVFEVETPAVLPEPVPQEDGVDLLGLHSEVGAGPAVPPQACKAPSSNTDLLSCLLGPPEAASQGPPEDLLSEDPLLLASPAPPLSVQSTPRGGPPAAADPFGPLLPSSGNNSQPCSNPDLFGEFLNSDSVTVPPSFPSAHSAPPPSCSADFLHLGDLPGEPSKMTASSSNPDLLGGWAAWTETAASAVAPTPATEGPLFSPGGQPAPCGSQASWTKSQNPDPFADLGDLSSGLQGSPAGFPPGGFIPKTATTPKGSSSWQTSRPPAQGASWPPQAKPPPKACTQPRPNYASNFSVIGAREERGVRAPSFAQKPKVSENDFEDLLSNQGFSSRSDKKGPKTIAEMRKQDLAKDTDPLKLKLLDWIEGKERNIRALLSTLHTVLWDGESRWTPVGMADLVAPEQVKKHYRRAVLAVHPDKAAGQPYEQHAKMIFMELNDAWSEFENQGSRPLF
Assay [18] deals with PIK3CG (human) (UniProt P48736).
PIK3CG (human), sequence (P48736 whole entry, looked up): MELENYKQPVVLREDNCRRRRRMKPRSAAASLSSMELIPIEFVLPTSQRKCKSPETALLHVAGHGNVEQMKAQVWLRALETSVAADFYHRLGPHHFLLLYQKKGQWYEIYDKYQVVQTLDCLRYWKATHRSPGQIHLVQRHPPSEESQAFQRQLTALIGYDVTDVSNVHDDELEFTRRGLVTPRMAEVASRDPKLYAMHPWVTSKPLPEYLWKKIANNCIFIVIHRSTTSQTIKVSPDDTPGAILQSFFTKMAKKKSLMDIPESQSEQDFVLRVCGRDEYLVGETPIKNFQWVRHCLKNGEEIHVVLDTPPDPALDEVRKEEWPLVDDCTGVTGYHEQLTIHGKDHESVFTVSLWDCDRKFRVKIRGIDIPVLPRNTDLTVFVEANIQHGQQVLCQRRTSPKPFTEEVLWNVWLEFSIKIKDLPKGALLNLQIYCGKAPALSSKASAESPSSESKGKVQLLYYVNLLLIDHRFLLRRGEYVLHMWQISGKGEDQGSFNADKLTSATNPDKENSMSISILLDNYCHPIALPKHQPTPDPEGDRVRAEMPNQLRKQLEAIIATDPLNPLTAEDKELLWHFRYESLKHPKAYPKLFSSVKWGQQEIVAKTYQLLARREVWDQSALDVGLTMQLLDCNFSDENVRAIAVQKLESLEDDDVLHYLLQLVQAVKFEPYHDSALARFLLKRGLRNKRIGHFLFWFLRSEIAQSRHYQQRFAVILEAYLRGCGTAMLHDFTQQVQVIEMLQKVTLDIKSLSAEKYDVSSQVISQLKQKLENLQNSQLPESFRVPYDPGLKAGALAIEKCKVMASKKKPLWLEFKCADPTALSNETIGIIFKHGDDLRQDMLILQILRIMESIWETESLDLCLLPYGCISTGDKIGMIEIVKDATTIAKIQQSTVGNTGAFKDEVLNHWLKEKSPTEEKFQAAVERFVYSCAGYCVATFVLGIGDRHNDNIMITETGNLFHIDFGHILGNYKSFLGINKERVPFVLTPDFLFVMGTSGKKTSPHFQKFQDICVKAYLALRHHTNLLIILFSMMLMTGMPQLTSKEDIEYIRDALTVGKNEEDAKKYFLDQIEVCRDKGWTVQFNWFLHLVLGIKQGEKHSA
Assay [19] addresses CSNK1E (human) (UniProt P49674).
Assay [20] has as its target RPS6KA5 KD2 (human) (UniProt O75582).
The target of assay [21] is AURKC (human) (UniProt Q9UQB9).
The target in assay [22] is RIOK1 (human) (UniProt Q9BRS2).
For assay [23], the target named is DCLK3 (human) (UniProt Q9C098).
The target in assay [24] is PRKD1 (human) (UniProt Q15139).
The target in assay [25] is ACVR2A (human) (UniProt P27037).
Assay [26] concerns the target RIPK4 (human) (UniProt P57078).
Assay [27] deals with MINK1 (human) (UniProt Q8N4C8).
Assay [28] deals with MAP2K3 (human) (UniProt P46734).
Assay [29] addresses NEK2 (human) (UniProt P51955).
For assay [30], the target named is MAP3K7 (human) (UniProt O43318).
Assay [31] concerns the target RPS6KA1 KD2 (human) (UniProt Q15418).
Assay [32] deals with FLT3 (human), P36888 [K663Q].
The target of assay [33] is MKNK2 (human) (UniProt Q9HBH9).
The target of assay [34] is TYK2 JH2 pseudokinase (human) (UniProt P29597).
Assay [35] addresses JAK1 JH2 pseudokinase (human) (UniProt P23458).

RPS6KA5 KD2 (human), sequence (O75582 whole entry, looked up): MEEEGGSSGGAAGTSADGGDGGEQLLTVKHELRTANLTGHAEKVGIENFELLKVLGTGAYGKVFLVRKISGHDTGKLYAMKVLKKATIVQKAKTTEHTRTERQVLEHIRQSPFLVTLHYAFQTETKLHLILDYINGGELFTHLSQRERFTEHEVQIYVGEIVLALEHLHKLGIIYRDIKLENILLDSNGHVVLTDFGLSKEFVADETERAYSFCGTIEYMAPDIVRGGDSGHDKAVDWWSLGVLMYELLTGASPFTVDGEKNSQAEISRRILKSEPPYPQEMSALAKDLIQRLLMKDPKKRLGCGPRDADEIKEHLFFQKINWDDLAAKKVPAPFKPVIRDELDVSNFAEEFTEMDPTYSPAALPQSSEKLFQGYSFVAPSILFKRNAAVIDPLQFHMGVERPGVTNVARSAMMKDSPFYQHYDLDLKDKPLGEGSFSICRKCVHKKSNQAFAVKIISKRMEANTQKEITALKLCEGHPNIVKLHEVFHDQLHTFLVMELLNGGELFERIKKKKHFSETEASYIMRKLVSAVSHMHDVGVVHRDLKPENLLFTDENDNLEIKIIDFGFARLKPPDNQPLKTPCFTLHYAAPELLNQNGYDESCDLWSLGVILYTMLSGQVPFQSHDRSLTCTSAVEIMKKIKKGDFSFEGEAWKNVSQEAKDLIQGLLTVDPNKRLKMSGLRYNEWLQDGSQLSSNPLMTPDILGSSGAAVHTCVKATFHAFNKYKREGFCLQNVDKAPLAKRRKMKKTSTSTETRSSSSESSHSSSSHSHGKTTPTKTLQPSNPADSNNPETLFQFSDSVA
RPS6KA4 KD2 (human), sequence (O75676 whole entry, looked up): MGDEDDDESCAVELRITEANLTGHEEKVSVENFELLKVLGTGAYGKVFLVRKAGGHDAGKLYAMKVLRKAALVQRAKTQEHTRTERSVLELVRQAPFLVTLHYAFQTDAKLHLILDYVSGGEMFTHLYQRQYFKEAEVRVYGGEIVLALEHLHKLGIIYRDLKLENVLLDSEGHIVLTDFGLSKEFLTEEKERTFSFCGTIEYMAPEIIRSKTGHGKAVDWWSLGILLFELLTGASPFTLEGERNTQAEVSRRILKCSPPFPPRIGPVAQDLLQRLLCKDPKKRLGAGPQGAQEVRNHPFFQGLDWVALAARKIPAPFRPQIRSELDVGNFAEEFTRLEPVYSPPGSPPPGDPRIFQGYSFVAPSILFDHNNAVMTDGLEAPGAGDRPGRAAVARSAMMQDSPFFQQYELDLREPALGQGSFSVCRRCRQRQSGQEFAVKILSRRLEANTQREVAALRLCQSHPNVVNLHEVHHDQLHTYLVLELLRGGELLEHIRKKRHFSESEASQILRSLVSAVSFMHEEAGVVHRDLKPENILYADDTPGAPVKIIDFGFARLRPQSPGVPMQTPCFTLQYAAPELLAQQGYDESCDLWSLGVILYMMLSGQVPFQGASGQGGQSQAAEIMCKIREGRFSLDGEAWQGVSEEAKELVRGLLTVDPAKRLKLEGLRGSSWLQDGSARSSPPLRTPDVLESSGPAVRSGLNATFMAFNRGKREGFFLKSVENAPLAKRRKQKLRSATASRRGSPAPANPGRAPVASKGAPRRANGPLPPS
MAPK15 (human), sequence (Q8TD08 whole entry, looked up): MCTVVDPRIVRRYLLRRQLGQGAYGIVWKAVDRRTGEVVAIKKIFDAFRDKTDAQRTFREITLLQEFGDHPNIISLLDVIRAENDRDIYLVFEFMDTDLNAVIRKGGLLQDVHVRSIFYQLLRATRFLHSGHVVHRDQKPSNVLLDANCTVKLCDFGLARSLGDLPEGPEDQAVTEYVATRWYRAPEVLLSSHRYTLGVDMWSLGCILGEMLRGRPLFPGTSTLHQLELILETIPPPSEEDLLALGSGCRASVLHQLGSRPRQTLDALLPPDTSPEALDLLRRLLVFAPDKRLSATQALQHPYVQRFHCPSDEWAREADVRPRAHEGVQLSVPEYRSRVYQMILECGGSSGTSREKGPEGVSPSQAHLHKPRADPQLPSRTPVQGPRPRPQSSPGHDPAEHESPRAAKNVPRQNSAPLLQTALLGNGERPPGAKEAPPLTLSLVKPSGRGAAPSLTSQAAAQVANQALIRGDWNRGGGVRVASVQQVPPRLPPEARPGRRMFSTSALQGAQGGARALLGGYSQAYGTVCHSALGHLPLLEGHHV

Consider `Nc1cccc(-c2cc(/C=C3\SC(=O)NC3=O)c[nH]c2=O)c1`, for which the kinase still bound, per cent of control in assay [1] was determined as 0.55%; in assay [2] it was 1.2%; in [3] it was 33%; in assay [4], 1%; in [5], 8.8%; in assay [6], 21%. Moreover, the kinase still bound, per cent of control in assay [7] was found to be 6.8%; in [8] it was 4.8%; in assay [9] it was 0.2%; in assay [10], 0%; in assay [11], 25%; in assay [12] it was 5.8%. Moreover, the kinase still bound, per cent of control in assay [13] amounted to 0.1%; in assay [14], 17%; in [15], 2.2%; in [16], 3.6%; in [17], 9.2%; in [18] it was 11%. In addition, the kinase still bound, per cent of control in [19] was determined as 26%; in assay [20], 11%; in [21] it was 30%; in assay [22] it was 9.8%.

In the case of `N=C1NC(=O)/C(=C/c2ccc(-c3ccccc3O)o2)S1`, the kinase still bound, per cent of control in assay [1] was 0.3%; in assay [23], 2.9%; in assay [2] it was 12%; in [3], 12%; in assay [24], 26%; in [25], 31%. For the same compound, the kinase still bound, per cent of control in assay [4] was 2%; in assay [5], 1.4%; in [7], 14%; in assay [8] it was 1.4%; in [9], 1.4%; in assay [10], 0.9%. In addition, the kinase still bound, per cent of control is 14% in [11]; 18% in assay [12]; 2.2% in assay [13]; 9.9% in assay [14]; 7.6% in assay [15]; 13% in assay [16]. The kinase still bound, per cent of control in assay [17] is 7.6%; in [26], 5.2%; in assay [27], 15%; in assay [20], 29%; in assay [28], 3.4%; in [22] it was 21%.

As for `CSC1=NC(=O)/C(=C/c2c[nH]c(=O)c(-c3ccc(NS(C)(=O)=O)cc3)c2)S1`, the kinase still bound, per cent of control in [1] was 5%; in assay [2], 14%; in [3], 13%; in assay [4], 5%; in assay [5] it was 30%; in [8], 13%. The kinase still bound, per cent of control in assay [9] stood at 2.2%; in assay [10], 9.5%; in assay [29], 27%; in assay [11], 34%; in assay [12] it was 31%; in [13] it was 0.15%. The kinase still bound, per cent of control in [14] was 1.6%; in assay [15], 3.7%; in assay [30], 14%; in assay [16], 25%; in [17], 3.4%; in [18], 13%. Further, the kinase still bound, per cent of control in [26] came out at 8.4%; in assay [20], 11%; in [31] it was 32%; in assay [28], 29%; in assay [22] it was 7.1%.

With `N=C1NC(=O)/C(=C/c2c[nH]c(=O)c(-c3ccc(N4CCNCC4)nc3)c2)S1`, the kinase still bound, per cent of control turned out to be 4% in assay [1]; 13% in assay [23]; 29% in [2]; 4.8% in assay [3]; 7% in assay [24]; 1.7% in [4]. In addition, the kinase still bound, per cent of control amounted to 8.8% in [5]; 4% in assay [8]; 0.15% in assay [9]; 2.8% in [10]; 13% in [29]; 33% in assay [32]. The kinase still bound, per cent of control in assay [13] came to 0.1%; in [15] it was 2.7%; in assay [17], 30%; in assay [18], 33%; in [27] it was 29%; in assay [20], 11%. This compound registered a kinase still bound, per cent of control in assay [22] of 10%.

For the compound `N=C1NC(=O)/C(=C/c2ccc(-c3csc4ccccc34)o2)S1`, the kinase still bound, per cent of control was 7.6% in assay [1]; 26% in assay [23]; 34% in assay [33]; 10% in [25]; 0.4% in assay [4]; 8.1% in assay [8]. Besides, the kinase still bound, per cent of control in assay [9] turned out to be 0.6%; in assay [34], 8.5%; in assay [10], 15%; in [35] it was 19%; in assay [14], 12%; in [15] it was 15%. For the same compound, the kinase still bound, per cent of control in assay [19] stood at 22%; in assay [31], 14%; in assay [28], 20%.
